Assay results reported in patent US8263605B2, “Modulators of muscarinic receptors” (Vertex Pharmaceutical Incorporated, priority 2006, dated 2012).

Tests used:
M4 muscarinic receptor = target: T1, M4 muscarinic receptor (Homo sapiens, UniProt P08173); experiment: Functional mobilization of intracellular calcium (FLIPR), M4-CHO cells; type: cell-based; settings: for Emax: 100% efficacy is the maximum response obtained with the Carbachol control; for M4 Activity: CHO cells expressing M4, calcium mobilization
T1 construct: expressed in transfected cells; host or cells: CHO (M4-CHO)
T1 sequence (P08173 1-479): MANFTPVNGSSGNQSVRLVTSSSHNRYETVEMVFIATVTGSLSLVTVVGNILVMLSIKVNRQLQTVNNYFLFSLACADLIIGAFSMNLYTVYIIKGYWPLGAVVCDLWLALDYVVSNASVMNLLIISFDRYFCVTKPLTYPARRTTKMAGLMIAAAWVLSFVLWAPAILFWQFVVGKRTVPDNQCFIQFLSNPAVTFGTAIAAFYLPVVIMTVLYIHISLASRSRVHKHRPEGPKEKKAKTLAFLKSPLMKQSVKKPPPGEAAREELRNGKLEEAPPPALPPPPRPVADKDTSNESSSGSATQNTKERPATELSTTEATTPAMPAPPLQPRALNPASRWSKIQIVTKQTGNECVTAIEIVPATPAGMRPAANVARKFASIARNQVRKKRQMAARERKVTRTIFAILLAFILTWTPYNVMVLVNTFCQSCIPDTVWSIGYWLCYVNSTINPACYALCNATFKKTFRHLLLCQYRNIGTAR
In short: (§1)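 Recombinant CHO cells loaded with Fluo-3 AM or Calcium 3 dye; fluorescence recorded 60 s on FLIPR in pH 7.4 buffer with 1 mM probenecid, 0.5% DMSO. Agonist mode: compound alone; antagonist mode: 15 min preincubation (or co-application) then carbachol at EC80. Efficacy relative to maximal carbachol response.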

M1 muscarinic receptor = target: T2, M1 muscarinic receptor (Homo sapiens, UniProt P11229); experiment: Functional mobilization of intracellular calcium (FLIPR), M1-CHO cells; type: cell-based; settings: for Emax: 100% efficacy is the maximum response obtained with the Carbachol control; for M1 Activity: CHO cells expressing M1, calcium mobilization
T2 construct: expressed in transfected cells; host or cells: CHO (M1-CHO)
T2 sequence (P11229 1-460): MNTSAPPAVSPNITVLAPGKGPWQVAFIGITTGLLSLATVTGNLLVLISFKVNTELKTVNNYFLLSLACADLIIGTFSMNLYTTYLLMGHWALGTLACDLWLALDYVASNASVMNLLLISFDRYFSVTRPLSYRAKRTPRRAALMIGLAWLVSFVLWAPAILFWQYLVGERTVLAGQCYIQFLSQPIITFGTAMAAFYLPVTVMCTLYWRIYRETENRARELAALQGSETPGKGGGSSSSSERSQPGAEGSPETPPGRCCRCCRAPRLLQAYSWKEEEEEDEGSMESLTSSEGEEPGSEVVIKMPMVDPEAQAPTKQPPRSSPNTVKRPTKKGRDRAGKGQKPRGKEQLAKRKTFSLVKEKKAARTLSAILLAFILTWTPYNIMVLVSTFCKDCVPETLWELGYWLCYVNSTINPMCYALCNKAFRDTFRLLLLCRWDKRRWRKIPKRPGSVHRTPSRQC
In short: as §1

| SMILES | Emax (M4 muscarinic receptor) [%] | M4 Activity (M4 muscarinic receptor) | Emax (M1 muscarinic receptor) [%] | M1 Activity (M1 muscarinic receptor) |
| --- | --- | --- | --- | --- |
| CN(C)C(=O)N1CC2(CCN(C[C@@H]3CCN(C(=O)OC4CCOC4)C3)CC2)c2ccccc21 (stereo partly drawn) [compound 110] | < 25 | ++ (activity was measured to be from 2.0 μM to 10.0 μM) | < 25 | ++ (activity was measured to be from 2.0 μM to 10.0 μM) |
| CN(C)C(=O)N1CC2(CCN(C[C@H]3CCN(C(=O)OC4CCOC4)C3)CC2)c2ccccc21 (stereo partly drawn) [compound 111] | < 25 | ++ (activity was measured to be from 2.0 μM to 10.0 μM) | < 25 | ++ (activity was measured to be from 2.0 μM to 10.0 μM) |
| CN(C)C(=O)N1CC2(CCN(C3CCC(c4ncns4)CC3)CC2)c2ccccc21 (stereo not drawn) [compound 112] | < 25 | + (activity was measured to be greater than 10.0 μM) | < 25 | ++ (activity was measured to be from 2.0 μM to 10.0 μM) |
| CN(C)C(=O)N1CC2(CCN(C3CCN(c4cncc(-c5ccccc5O)n4)CC3)CC2)c2ccccc21 [compound 113] | < 25 | + (activity was measured to be greater than 10.0 μM) | 25 to 100 | +++ (activity was measured to be less than 2.0 μM) |
| C=Cc1cncc(N2CCC(N3CCC4(CC3)CN(C(=O)N(C)C)c3ccccc34)CC2)n1 [compound 114] | 25 to 100 | +++ (activity was measured to be less than 2.0 μM) | < 25 | + (activity was measured to be greater than 10.0 μM) |
| Cc1nsc(N2CCC(C)(N3CCC4(CC3)CN(C(=O)N(C)C)c3ccccc34)CC2)n1 [compound 115] | < 25 | +++ (activity was measured to be less than 2.0 μM) | < 25 | + (activity was measured to be greater than 10.0 μM) |
| Cc1cnc(N2CCC(N3CCC4(CC3)CN(C(=O)N(C)C)c3ccccc34)CC2)s1 [compound 116] | < 25 | + (activity was measured to be greater than 10.0 μM) | < 25 | + (activity was measured to be greater than 10.0 μM) |
| CN(C)C(=O)N1CC2(CCN(C3CCN(c4nc5ccccc5s4)CC3)CC2)c2ccccc21 [compound 117] | < 25 | ++ (activity was measured to be from 2.0 μM to 10.0 μM) | < 25 | + (activity was measured to be greater than 10.0 μM) |
| CN(C)C(=O)N1CC2(CCN(C3CCN(c4nc5ccccc5o4)CC3)CC2)c2ccccc21 [compound 118] | < 25 | ++ (activity was measured to be from 2.0 μM to 10.0 μM) | 25 to 100 | ++ (activity was measured to be from 2.0 μM to 10.0 μM) |
